Test results as given in patent publication US7811352B2, “Fertilizer compositions and methods of using” (priority 2005, dated 2010).

Key:
Bermuda grass [1] = test: Turfgrass quality and color ratings, Bermuda grass fairway (Example 10); type: in vivo; conditions: scale 1-10
Excerpt: (§1) In this Example, the effect of a fertilizer comprising lysine on warm season turfgrass growth was examined. The effects of lysine (HCl) and LIQUID LYSINE on a common type of golf course fairway quality turfgrass (Bermuda grass) were compared with those of urea and Milorganite.
(§2) Fifteen fertilizer treatments comprising three concentrations of each fertilizer composition (Milorganite (N—P—K, 6-2-0), urea (N—P—K, 46-0-0), LIQUID LYSINE (N—P—K, 10-2-1), and both granular and aqueous lysine (HCl) (N—P—K, 15-2-1)) were prepared and applied to 4 replications of Bermuda grass. The aqueous lysine (HCl) was dissolved in water prior to application. Each fertilizer treatment was applied in concentrations of 0.5 lb N/1000 ft^2/month, 1.0 lb N/1000 ft^2/month and 3.0 lb N/1000 ft^2/month. The urea, LIQUID LYSINE and aqueous lysine (HCl) were applied as foliar liquids, while Milorganite and granular lysine (HCl) were applied as granular fertilizers Plot size was 1 m×2 m set up as a randomized complete block. Plots were mowed at 0.5 inches before fertilizer application. Irrigation (0.15 inch) was applied following application. Plots were rated for turfgrass quality and color (scale of 1-10 where 10=dark green turf, 1=dead/brown turf, and 6=minimally acceptable turf) and phytotoxicity (scale of 0-5, where 5=worst, and 2=minimally objectionable) throughout the study period. Quality, color, and phytotoxicity were measured on 2 days before application (day −2) and day 2, day 5, day 15 and day 21 after application. All data was subject to statistical analysis and significant means were determined. Average turfgrass quality ratings for the treatments are presented in Table 9 and the quality results for application rates of 1.0 lb N/1000 ft^2/month are graphically presented in FIG. 4.

Bermuda grass [2] = test: Phytotoxicity rating, Bermuda grass fairway (Example 10); type: in vivo; conditions: scale 0-5, 5=worst
Excerpt: as §1, §2

[3] = Monthly Rate 0.5 lbs N/1000 ft^2, Day 2
[4] = Monthly Rate 0.5 lbs N/1000 ft^2, Day 2, (HCl)
[5] = Monthly Rate 0.5 lbs N/1000 ft^2, Day 5, (HCl)
[6] = Monthly Rate 0.5 lbs N/1000 ft^2, Day 15, (HCl)
[7] = Monthly Rate 0.5 lbs N/1000 ft^2, Day 21, (HCl)
[8] = Monthly Rate 0.5 lbs N/1000 ft^2, Day −2 (before application)
[9] = Monthly Rate 0.5 lbs N/1000 ft^2, Day −2 (before application), (HCl)
[10] = Monthly Rate 1.0 lbs N/1000 ft^2, Day 2, (HCl)
[11] = Monthly Rate 1.0 lbs N/1000 ft^2, Day 5, (HCl)
[12] = Monthly Rate 1.0 lbs N/1000 ft^2, Day 15
[13] = Monthly Rate 1.0 lbs N/1000 ft^2, Day 15, (HCl)
[14] = Monthly Rate 1.0 lbs N/1000 ft^2, Day 21, (HCl)
[15] = Monthly Rate 1.0 lbs N/1000 ft^2, Day −2 (before application), (HCl)
[16] = Monthly Rate 3.0 lbs N/1000 ft^2, Day 2
[17] = Monthly Rate 3.0 lbs N/1000 ft^2, Day 5
[18] = Monthly Rate 3.0 lbs N/1000 ft^2, Day 5, (HCl)
[19] = Monthly Rate 3.0 lbs N/1000 ft^2, Day 15, (HCl)
[20] = Monthly Rate 3.0 lbs N/1000 ft^2, Day 21, (HCl)
[21] = Monthly Rate 3.0 lbs N/1000 ft^2, Day −2 (before application), (HCl)
[22] = Monthly Rate 0.5 lbs N/1000 ft^2, Day 5
[23] = Monthly Rate 0.5 lbs N/1000 ft^2, Day 15
[24] = Monthly Rate 0.5 lbs N/1000 ft^2, Day 21
[25] = Monthly Rate 1.0 lbs N/1000 ft^2, Day 2
[26] = Monthly Rate 1.0 lbs N/1000 ft^2, Day 5
[27] = Monthly Rate 1.0 lbs N/1000 ft^2, Day 21
[28] = Monthly Rate 1.0 lbs N/1000 ft^2, Day −2 (before application)
[29] = Monthly Rate 3.0 lbs N/1000 ft^2, Day 2, (HCl)
[30] = Monthly Rate 3.0 lbs N/1000 ft^2, Day 15
[31] = Monthly Rate 3.0 lbs N/1000 ft^2, Day 21
[32] = Monthly Rate 3.0 lbs N/1000 ft^2, Day −2 (before application)

Cl.NCCCC[C@H](N)C(=O)O [Lys (HCl) 15% N (aq), lysine (HCl)]
Quality Ratings - Bermuda Grass (Bermuda grass [1]; [3]): 7.3b | Color Ratings - Bermuda Grass (Bermuda grass [1]; [4]): 7.3 | Color Ratings - Bermuda Grass (Bermuda grass [1]; [5]): 7.8 g·days | Quality Ratings - Bermuda Grass (Bermuda grass [1]; [5]): 7.1 days | Color Ratings - Bermuda Grass (Bermuda grass [1]; [6]): 7.6cde | Quality Ratings - Bermuda Grass (Bermuda grass [1]; [6]): 7.8de | Color Ratings - Bermuda Grass (Bermuda grass [1]; [7]): 8.0bc | Quality Ratings - Bermuda Grass (Bermuda grass [1]; [7]): 8.0cde | Color Ratings - Bermuda Grass (Bermuda grass [1]; [8]): 6.5 | Quality Ratings - Bermuda Grass (Bermuda grass [1]; [9]): 6.3 | Color Ratings - Bermuda Grass (Bermuda grass [1]; [10]): 7.3 | Quality Ratings - Bermuda Grass (Bermuda grass [1]; [10]): 7.0b | Color Ratings - Bermuda Grass (Bermuda grass [1]; [11]): 8.1cde | Quality Ratings - Bermuda Grass (Bermuda grass [1]; [11]): 7.8bcd | Color Ratings - Bermuda Grass (Bermuda grass [1]; [12]): 7.8cd | Quality Ratings - Bermuda Grass (Bermuda grass [1]; [13]): 7.9de | Color Ratings - Bermuda Grass (Bermuda grass [1]; [14]): 8.0bc | Quality Ratings - Bermuda Grass (Bermuda grass [1]; [14]): 8.0cde | Color Ratings - Bermuda Grass (Bermuda grass [1]; [15]): 6.5 | Quality Ratings - Bermuda Grass (Bermuda grass [1]; [15]): 6.4 | Color Ratings - Bermuda Grass (Bermuda grass [1]; [16]): 7.3 | Quality Ratings - Bermuda Grass (Bermuda grass [1]; [16]): 7.4b | Color Ratings - Bermuda Grass (Bermuda grass [1]; [17]): 9.0a | Quality Ratings - Bermuda Grass (Bermuda grass [1]; [18]): 8.3ab | Color Ratings - Bermuda Grass (Bermuda grass [1]; [19]): 8.3ab | Quality Ratings - Bermuda Grass (Bermuda grass [1]; [19]): 8.8b | Color Ratings - Bermuda Grass (Bermuda grass [1]; [20]): 8.8a | Quality Ratings - Bermuda Grass (Bermuda grass [1]; [20]): 8.5ab | Color Ratings - Bermuda Grass (Bermuda grass [1]; [21]): 6.1 | Quality Ratings - Bermuda Grass (Bermuda grass [1]; [21]): 6.0 | Phytotoxicity - Bermuda Grass (Bermuda grass [2]; [3]): 0.0b | Phytotoxicity - Bermuda Grass (Bermuda grass [2]; [22]): 0 | Phytotoxicity - Bermuda Grass (Bermuda grass [2]; [23]): 0 | Phytotoxicity - Bermuda Grass (Bermuda grass [2]; [24]): 0 | Phytotoxicity - Bermuda Grass (Bermuda grass [2]; [8]): 0 | Phytotoxicity - Bermuda Grass (Bermuda grass [2]; [25]): 0.0b | Phytotoxicity - Bermuda Grass (Bermuda grass [2]; [26]): 0 | Phytotoxicity - Bermuda Grass (Bermuda grass [2]; [12]): 0 | Phytotoxicity - Bermuda Grass (Bermuda grass [2]; [27]): 0 | Phytotoxicity - Bermuda Grass (Bermuda grass [2]; [28]): 0 | Phytotoxicity - Bermuda Grass (Bermuda grass [2]; [29]): 0.3ab | Phytotoxicity - Bermuda Grass (Bermuda grass [2]; [17]): 0 | Phytotoxicity - Bermuda Grass (Bermuda grass [2]; [30]): 0 | Phytotoxicity - Bermuda Grass (Bermuda grass [2]; [31]): 0 | Phytotoxicity - Bermuda Grass (Bermuda grass [2]; [32]): 0

Cl.NCCCC[C@H](N)C(=O)O [Lys (HCl) 15% N (gran), lysine (HCl)]
Quality Ratings - Bermuda Grass (Bermuda grass [1]; [3]): 7.3b | Color Ratings - Bermuda Grass (Bermuda grass [1]; [4]): 7.5 | Color Ratings - Bermuda Grass (Bermuda grass [1]; [5]): 8.0def | Quality Ratings - Bermuda Grass (Bermuda grass [1]; [5]): 7.6bcd | Color Ratings - Bermuda Grass (Bermuda grass [1]; [6]): 7.1e | Quality Ratings - Bermuda Grass (Bermuda grass [1]; [6]): 7.4e | Color Ratings - Bermuda Grass (Bermuda grass [1]; [7]): 8.3b | Quality Ratings - Bermuda Grass (Bermuda grass [1]; [7]): 7.9def | Color Ratings - Bermuda Grass (Bermuda grass [1]; [8]): 6.5 | Quality Ratings - Bermuda Grass (Bermuda grass [1]; [9]): 6.5 | Color Ratings - Bermuda Grass (Bermuda grass [1]; [10]): 7.9 | Quality Ratings - Bermuda Grass (Bermuda grass [1]; [10]): 7.6ab | Color Ratings - Bermuda Grass (Bermuda grass [1]; [11]): 8.3bcd | Quality Ratings - Bermuda Grass (Bermuda grass [1]; [11]): 7.9abc | Color Ratings - Bermuda Grass (Bermuda grass [1]; [12]): 7.8cd | Quality Ratings - Bermuda Grass (Bermuda grass [1]; [13]): 8.1cd | Color Ratings - Bermuda Grass (Bermuda grass [1]; [14]): 8.3b | Quality Ratings - Bermuda Grass (Bermuda grass [1]; [14]): 8.1bcd | Color Ratings - Bermuda Grass (Bermuda grass [1]; [15]): 6.4 | Quality Ratings - Bermuda Grass (Bermuda grass [1]; [15]): 6.3 | Color Ratings - Bermuda Grass (Bermuda grass [1]; [16]): 7.3 | Quality Ratings - Bermuda Grass (Bermuda grass [1]; [16]): 7.4b | Color Ratings - Bermuda Grass (Bermuda grass [1]; [17]): 9.0a | Quality Ratings - Bermuda Grass (Bermuda grass [1]; [18]): 8.5a | Color Ratings - Bermuda Grass (Bermuda grass [1]; [19]): 8.6a | Quality Ratings - Bermuda Grass (Bermuda grass [1]; [19]): 9.4a | Color Ratings - Bermuda Grass (Bermuda grass [1]; [20]): 8.9a | Quality Ratings - Bermuda Grass (Bermuda grass [1]; [20]): 8.6a | Color Ratings - Bermuda Grass (Bermuda grass [1]; [21]): 6.4 | Quality Ratings - Bermuda Grass (Bermuda grass [1]; [21]): 6.1 | Phytotoxicity - Bermuda Grass (Bermuda grass [2]; [3]): 0.0b | Phytotoxicity - Bermuda Grass (Bermuda grass [2]; [22]): 0 | Phytotoxicity - Bermuda Grass (Bermuda grass [2]; [23]): 0 | Phytotoxicity - Bermuda Grass (Bermuda grass [2]; [24]): 0 | Phytotoxicity - Bermuda Grass (Bermuda grass [2]; [8]): 0 | Phytotoxicity - Bermuda Grass (Bermuda grass [2]; [25]): 0.0b | Phytotoxicity - Bermuda Grass (Bermuda grass [2]; [26]): 0 | Phytotoxicity - Bermuda Grass (Bermuda grass [2]; [12]): 0 | Phytotoxicity - Bermuda Grass (Bermuda grass [2]; [27]): 0 | Phytotoxicity - Bermuda Grass (Bermuda grass [2]; [28]): 0 | Phytotoxicity - Bermuda Grass (Bermuda grass [2]; [29]): 0.5a | Phytotoxicity - Bermuda Grass (Bermuda grass [2]; [17]): 0 | Phytotoxicity - Bermuda Grass (Bermuda grass [2]; [30]): 0 | Phytotoxicity - Bermuda Grass (Bermuda grass [2]; [31]): 0 | Phytotoxicity - Bermuda Grass (Bermuda grass [2]; [32]): 0
